Source: PubChem BioAssay (NCI)
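Five concentrations, 48 hours, 96-well plates. The concentration for full growth arrest is given as TGI.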

Columns and labels:
Experiment in all cases: NCI tumour cell line growth inhibition, 48 h
UO-31 renal = system: UO-31 renal
K-562 leukemia = system: K-562 leukemia
786-0 renal = system: 786-0 renal
SK-MEL-5 melanoma = system: SK-MEL-5 melanoma
MALME-3M melanoma = system: MALME-3M melanoma
SK-MEL-28 melanoma = system: SK-MEL-28 melanoma
NCI-H522 lung = system: NCI-H522 lung
EKVX NSCLC = system: EKVX NSCLC
CAKI-1 renal = system: CAKI-1 renal
ACHN renal = system: ACHN renal
NCI-H23 lung = system: NCI-H23 lung
RXF 393 renal = system: RXF 393 renal
LOX IMVI melanoma = system: LOX IMVI melanoma
HOP-62 NSCLC = system: HOP-62 NSCLC
SK-OV-3 ovarian = system: SK-OV-3 ovarian
SR leukemia = system: SR leukemia
HT29 colon = system: HT29 colon
U251 CNS = system: U251 CNS
HCT-15 colon = system: HCT-15 colon
SF-295 CNS = system: SF-295 CNS
OVCAR-3 ovarian = system: OVCAR-3 ovarian
SNB-19 CNS = system: SNB-19 CNS
PC-3 prostate = system: PC-3 prostate
T-47D breast = system: T-47D breast
HS 578T breast = system: HS 578T breast
UACC-257 melanoma = system: UACC-257 melanoma
COLO 205 colon = system: COLO 205 colon
SF-539 CNS = system: SF-539 CNS
SK-MEL-2 melanoma = system: SK-MEL-2 melanoma
MDA-MB-231 breast = system: MDA-MB-231 breast
MOLT-4 leukemia = system: MOLT-4 leukemia
NCI-H460 lung = system: NCI-H460 lung
CCRF-CEM leukemia = system: CCRF-CEM leukemia
SNB-75 CNS = system: SNB-75 CNS
SW-620 colon = system: SW-620 colon
RPMI-8226 leukemia = system: RPMI-8226 leukemia
MDA-N = system: MDA-N
SN12C renal = system: SN12C renal
NCI/ADR-RES ovarian = system: NCI/ADR-RES ovarian
OVCAR-8 ovarian = system: OVCAR-8 ovarian
BT-549 breast = system: BT-549 breast
HCT-116 colon = system: HCT-116 colon
TK-10 renal = system: TK-10 renal
OVCAR-4 ovarian = system: OVCAR-4 ovarian
OVCAR-5 ovarian = system: OVCAR-5 ovarian
HL-60(TB) leukemia = system: HL-60(TB) leukemia
MDA-MB-435 = system: MDA-MB-435
MCF7 breast = system: MCF7 breast
DU-145 prostate = system: DU-145 prostate
A549 NSCLC = system: A549 NSCLC
KM12 colon = system: KM12 colon
IGROV1 ovarian = system: IGROV1 ovarian
UACC-62 melanoma = system: UACC-62 melanoma
SF-268 CNS = system: SF-268 CNS
NCI-H226 lung = system: NCI-H226 lung
M14 melanoma = system: M14 melanoma
HOP-92 NSCLC = system: HOP-92 NSCLC
A498 renal = system: A498 renal

## O=C1CC(n2ccnc2)c2c(Cl)sc(Cl)c21 (configuration not stated)
UO-31 renal
  TGI: 27 µM
K-562 leukemia
  TGI: > 38.1 µM
786-0 renal
  TGI: > 37.9 µM
SK-MEL-5 melanoma
  TGI: 41.2 µM
MALME-3M melanoma
  TGI: 36.1 µM
SK-MEL-28 melanoma
  TGI: > 54.7 µM
NCI-H522 lung
  TGI: 17.1 µM
EKVX NSCLC
  TGI: 38.7 µM
CAKI-1 renal
  TGI: 36.1 µM
ACHN renal
  TGI: 33.2 µM
NCI-H23 lung
  TGI: 30.9 µM
RXF 393 renal
  TGI: 33.9 µM
LOX IMVI melanoma
  TGI: 19.2 µM
HOP-62 NSCLC
  TGI: 51.9 µM
SK-OV-3 ovarian
  TGI: > 79.5 µM
SR leukemia
  TGI: > 19.8 µM
HT29 colon
  TGI: 43.6 µM
U251 CNS
  TGI: 35.6 µM
HCT-15 colon
  TGI: 28.1 µM
SF-295 CNS
  TGI: > 78.1 µM
OVCAR-3 ovarian
  TGI: 30.3 µM
SNB-19 CNS
  TGI: 38.3 µM
PC-3 prostate
  TGI: 36.7 µM
T-47D breast
  TGI: 53.2 µM
HS 578T breast
  TGI: > 78.8 µM
UACC-257 melanoma
  TGI: > 51.1 µM
COLO 205 colon
  TGI: 33.8 µM
SF-539 CNS
  TGI: 35.4 µM
SK-MEL-2 melanoma
  TGI: 54.9 µM
MDA-MB-231 breast
  TGI: 36.5 µM
MOLT-4 leukemia
  TGI: > 24 µM
NCI-H460 lung
  TGI: > 73.9 µM
CCRF-CEM leukemia
  TGI: > 22.6 µM
SNB-75 CNS
  TGI: 52 µM
SW-620 colon
  TGI: > 33.1 µM
RPMI-8226 leukemia
  TGI: > 100 µM
MDA-N
  TGI: 50.4 µM
SN12C renal
  TGI: 37.3 µM
NCI/ADR-RES ovarian
  TGI: 71.5 µM
OVCAR-8 ovarian
  TGI: 27.8 µM
BT-549 breast
  TGI: 32.8 µM
HCT-116 colon
  TGI: 29.5 µM
TK-10 renal
  TGI: 45.1 µM
OVCAR-4 ovarian
  TGI: 42.3 µM
OVCAR-5 ovarian
  TGI: 48.1 µM
HL-60(TB) leukemia
  TGI: > 100 µM
MDA-MB-435
  TGI: 49.6 µM
MCF7 breast
  TGI: 28 µM
DU-145 prostate
  TGI: 30.6 µM
A549 NSCLC
  TGI: > 64.7 µM
KM12 colon
  TGI: 33.9 µM
IGROV1 ovarian
  TGI: 26.6 µM
UACC-62 melanoma
  TGI: 32 µM
SF-268 CNS
  TGI: 59.3 µM
NCI-H226 lung
  TGI: 77.1 µM
M14 melanoma
  TGI: 35.3 µM

## CO[P@@]1(=O)O[C@@H](c2ccccc2)[C@H](O)[C@@]1(O)c1ccccc1
UO-31 renal
  TGI: > 100 µM
K-562 leukemia
  TGI: > 100 µM
786-0 renal
  TGI: > 100 µM
SK-MEL-5 melanoma
  TGI: > 100 µM
MALME-3M melanoma
  TGI: > 100 µM
SK-MEL-28 melanoma
  TGI: > 100 µM
NCI-H522 lung
  TGI: > 100 µM
EKVX NSCLC
  TGI: > 100 µM
CAKI-1 renal
  TGI: > 100 µM
ACHN renal
  TGI: > 100 µM
NCI-H23 lung
  TGI: > 100 µM
RXF 393 renal
  TGI: > 100 µM
LOX IMVI melanoma
  TGI: > 100 µM
SK-OV-3 ovarian
  TGI: > 100 µM
SR leukemia
  TGI: 74.7 µM
HT29 colon
  TGI: > 100 µM
U251 CNS
  TGI: > 100 µM
HCT-15 colon
  TGI: > 100 µM
SF-295 CNS
  TGI: > 100 µM
OVCAR-3 ovarian
  TGI: > 100 µM
SNB-19 CNS
  TGI: > 100 µM
PC-3 prostate
  TGI: > 100 µM
HOP-92 NSCLC
  TGI: > 100 µM
T-47D breast
  TGI: > 100 µM
HS 578T breast
  TGI: > 100 µM
UACC-257 melanoma
  TGI: > 100 µM
COLO 205 colon
  TGI: > 100 µM
SF-539 CNS
  TGI: > 100 µM
SK-MEL-2 melanoma
  TGI: > 100 µM
MDA-MB-231 breast
  TGI: > 100 µM
MOLT-4 leukemia
  TGI: > 100 µM
NCI-H460 lung
  TGI: > 100 µM
CCRF-CEM leukemia
  TGI: > 100 µM
SNB-75 CNS
  TGI: > 100 µM
SW-620 colon
  TGI: > 100 µM
MDA-N
  TGI: > 100 µM
SN12C renal
  TGI: > 100 µM
A498 renal
  TGI: > 100 µM
NCI/ADR-RES ovarian
  TGI: > 100 µM
OVCAR-8 ovarian
  TGI: > 100 µM
BT-549 breast
  TGI: > 100 µM
HCT-116 colon
  TGI: > 100 µM
TK-10 renal
  TGI: > 100 µM
OVCAR-4 ovarian
  TGI: > 100 µM
OVCAR-5 ovarian
  TGI: > 100 µM
HL-60(TB) leukemia
  TGI: > 100 µM
MDA-MB-435
  TGI: > 100 µM
MCF7 breast
  TGI: > 100 µM
DU-145 prostate
  TGI: > 100 µM
A549 NSCLC
  TGI: > 100 µM
KM12 colon
  TGI: > 100 µM
IGROV1 ovarian
  TGI: > 100 µM
UACC-62 melanoma
  TGI: > 100 µM
SF-268 CNS
  TGI: > 100 µM
NCI-H226 lung
  TGI: > 100 µM
M14 melanoma
  TGI: > 100 µM
